Experimental data from patent US20250340661A1, “ANTI CD40 ANTIBODY, ANTIGEN BINDING FRAGMENT AND MEDICAL USE THEREOF” (Jiangsu Hengrui Pharmaceuticals Co., Ltd., priority 2021, published 2025).
Where two headings read alike, the source gives them in different places.

Key:
[1] = target: T1, Raji cell surface human CD40 (Homo sapiens, UniProt P25942); test: FACS binding of humanized anti-CD40 antibodies to Raji cells
T1 construct: Raji cells highly express human CD40 on the cell surface; endogenous in cells; host or cells: Raji cells (Burkitt lymphoma line)
T1 sequence (P25942 21-277): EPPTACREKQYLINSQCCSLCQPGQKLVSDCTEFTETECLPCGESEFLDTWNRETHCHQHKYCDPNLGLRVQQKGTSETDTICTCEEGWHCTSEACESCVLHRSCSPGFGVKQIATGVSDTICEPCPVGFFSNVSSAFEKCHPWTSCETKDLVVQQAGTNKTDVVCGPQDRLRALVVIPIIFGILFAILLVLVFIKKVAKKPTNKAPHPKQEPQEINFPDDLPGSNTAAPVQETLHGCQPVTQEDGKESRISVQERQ
Description: Raji cells highly express human CD40 on the cell surface and thus can be used to detect the binding of CD40 antagonistic antibodies to the cell surface human CD40.
Raji cells were plated at 1.5E5/well, and various concentrations of CD40 antagonistic antibodies were added. The plate was incubated at 4° C. for 1 h. After two washes with FACS buffer (PBS+2% FBS), a secondary antibody (Alexa Flour488 conjugated anti-human IgG (H+L) antibody) was added, and the plate was incubated at 4° C. for 0.5 h.
After two washes with FACS buffer, the fluorescence intensity on the cell surface was measured by flow cytometry (BD FACS Celesta).

[2] = system: human CD40 transgenic mice; test: Mouse T cell-dependent humoral immune response (TDAR) model; assay type: in vivo; conditions: 0.3 mpk BIW ip (IgG1 control 1 mg/kg per Table 15); serum ELISA
Description: On day 0 of the experiment, one of the mice in each group was subjected to blood collection followed by intraperitoneal injection. On day 1, each mouse was intraperitoneally injected with 50 μg of KLH (KLH:complete Freund's adjuvant (CFA)=1:1 emulsified immune complex) for immunization. On day 15 of the experiment, each mouse was intraperitoneally injected with 50 μg of KLH (KLH:incomplete Freund's adjuvant (IFA)=1:1 emulsified immune complex) for a second immunization. Each group was intraperitoneally injected twice a week, and blood samples of about 150 μL were collected from the orbital venous plexus on days 7, 14, 21, and 28. Whole blood was left to stand at room temperature for 1-4 h and centrifuged at 7000 rpm at 4° C. for 10 min to separate serum, and the serum was stored at −80° C. before use.
Mouse serum was separated weekly and assayed by ELISA for the anti-KLH specific IgG level.

[3] = system: human CD40 transgenic mice; test: Mouse skin graft rejection model; assay type: in vivo
Excerpt: Male Balb/c mice, 6 weeks old, were purchased from the Laboratory Animal Management Department, Shanghai Institute of Planned Parenthood Research. Housing environment: SPF; certification number: 20180006023393.
On day −2 of the experiment, the mice were intraperitoneally injected with tacrolimus FK506 or CD40 antagonistic antibodies. On day 0 of the experiment, donor Balb/c mice and C57BL6/J mice were anesthetized with 4% chloral hydrate. The tails of the donor mice were removed, and full circles of skin, 1 cm in length, were isolated from the tails. The hair on the acceptor mice's back was removed, and an incision was made along the skin layer. An equal area of skin was removed while preserving the back fat and connective tissue. The donor skin was placed on the acceptor mice's incision site, and the incision was closed with glue. The mice were then placed back in cages to recover.
The mice were dosed according to the administration regimens in Table 17. After 7 days of recovery, the mouse skin survival was observed daily and rejection scores were recorded.

CD40 [4] = target: T2, CD40 (Homo sapiens, UniProt P25942); test: B cell activation assay system (human PBMCs, CD40L stimulation); assay type: cell-based; set-up: endogenous in cells; host or cells: human PBMCs (CD19+ B cells read out); conditions: CD40L-his + anti-His overnight
Description: CD40 is highly expressed in B cells, and CD40L, upon binding to CD40, can induce B cell activation and up-regulate the expression of a series of activation markers. CD40 antagonistic antibodies block the binding of CD40L to CD40, thereby eliminating the immune activation process of B cells.
Human PBMCs were plated at 2E5/well, 50 μL/well into a 96-well cell culture plate (the medium was RPMI-1640, 10% FBS, 1% penicillin-streptomycin). Serially diluted test antibodies were added at 50 μL/well, and the cells were co-incubated at 37° C. in 5% CO2 for 0.5 h. CD40L-his and an anti-His antibody were added to each well for overnight stimulation. The following day, the plate was centrifuged, the supernatant was removed, and the cells were washed twice with FACS buffer and stained at room temperature for 15 min with 100 μL of Fixable viability dye EF780 (Invitrogen, 65086514) diluted at 1:1000. The cells were washed twice and then blocked at room temperature for 10 min with 100 μL of human Fc blocker (BD, 564220) diluted at 1:200. After centrifugation, the cells were incubated at 4° C. for 0.5 h with flow cytometry antibodies (PerCP/Cyanine5.5 anti-human CD19 (Biolegend, 302230), and APC anti-human CD69 (Biolegend, 310910)) diluted at 1:200. After centrifugation, the supernatant was removed, the cells were washed twice with FACS buffer and then resuspended in 200 μL of PBS, and the fluorescence intensity on the cell surface was measured by flow cytometry (BD FACS Celesta).
With reference to the method in Example 10, the inhibitory activity of the anti-CD40 antibodies 2F12-L4H2-AAYTE and 9E6-L4H2-AAYTE, which carry the AAYTE mutation in the Fc, in the B cell activation assay system was measured.
Target sequence in this assay (P25942 21-277): as above

CD40 [5] = target: T2, CD40; test: SPR (Biacore) affinity for human CD40; assay type: binding; set-up: h-CD40-his; Glu21-Arg193; P25942-1; His; purchased Acrobiosystems Inc. CD0-H5228; conditions: Human CD40 as mobile phase, antibody captured
Description: The test antibody was affinity-captured on an anti-human Fc chip, and a series of concentrations of His-tagged human or cynomolgus monkey CD40 antigen were allowed to flow over the chip surface. Reaction signals were detected in real time using a Biacore instrument, and thus binding and dissociation curves were obtained. The buffer used in the experiment was HBS-EP+10× buffer solution (Cat. #BR-1006-69, GE) diluted to 1× (pH 7.4) with D. I. Water. Fitting was performed on the data obtained from the experiment using a (1:1) Binding model to obtain affinity values. 9E6-L4H2 and 2F12-L4H2 have similar binding constants for human CD40 to CFZ533, 9E6-L4H2 has a stronger binding affinity for cynomolgus monkey CD40, and 2F12-L4H2 has a slightly weak binding affinity for cynomolgus monkey CD40.
Target sequence in this assay (P25942 21-193): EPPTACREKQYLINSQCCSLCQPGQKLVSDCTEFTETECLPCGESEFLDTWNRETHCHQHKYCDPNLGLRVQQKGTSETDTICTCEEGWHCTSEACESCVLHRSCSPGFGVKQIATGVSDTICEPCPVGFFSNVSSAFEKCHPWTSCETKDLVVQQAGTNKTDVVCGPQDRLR

**Q.** “CFZ533: anti-CD40 antagonistic antibody (iscalimab), positive control; variable regions from U.S. Pat. No. 8,277,810B [reference compound]” was tested. Which EC50 [1] did it give?
**A.** 1.01 nM

**Q.** What about the “anti-KLH specific IgG level, Day 7” value [2] of the same substance?
**A.** 0.04 ± 0.01

**Q.** What about the “anti-KLH specific IgG level, Day 14” value [2] of the same substance?
**A.** 30.9 ± 10.8

**Q.** What about the “anti-KLH specific IgG level, Day 21” value [2] of the same substance?
**A.** 845 ± 423

**Q.** And the “anti-KLH specific IgG level, Day 28” value [2]?
**A.** 3043 ± 1600

**Q.** What about the Skin graft score ([3]; 8 days, 3 mpk, scale 3 (no rejection) to 0) of the same substance?
**A.** 2.7

**Q.** And the Skin graft score ([3]; 8 days, 10 mpk, scale 3 to 0)?
**A.** 2.9

**Q.** And the Skin graft score ([3]; 10 days, 3 mpk, scale 3 to 0)?
**A.** 2.1

**Q.** And the Skin graft score ([3]; 10 days, 10 mpk, scale 3 to 0)?
**A.** 2.1

**Q.** And the Skin graft score ([3]; 15 days, 3 mpk, scale 3 to 0)?
**A.** 0

**Q.** What about the Skin graft score ([3]; 15 days, 10 mpk, scale 3 to 0) of the same substance?
**A.** 0

**Q.** And the Skin graft score ([3]; 20 days, 3 mpk, scale 3 to 0)?
**A.** 0

**Q.** And the Skin graft score ([3]; 20 days, 10 mpk, scale 3 to 0)?
**A.** 0

**Q.** And the “Skin graft survival rate (%)” value ([3]; Day 15, 3 mpk ip)?
**A.** 0%

**Q.** What about the “Skin graft survival rate (%)” value ([3]; Day 15, 10 mpk ip) of the same substance?
**A.** 0%

**Q.** And the “CD19+CD69+ % Maximum inhibition rate” value (CD40 [4])?
**A.** 95%

**Q.** What about the “CD19+CD69+ MFI Maximum inhibition rate” value (CD40 [4]) of the same substance?
**A.** 110%

**Q.** And the IC50 (CD40 [4]; read-out: CD19+CD69+ % IC50)?
**A.** 0.14 nM

**Q.** What about the IC50 (CD40 [4]; read-out: CD19+CD69+ MFI IC50) of the same substance?
**A.** 0.07 nM

**Q.** And the Ka (CD40 [5])?
**A.** 688000 M⁻¹ s⁻¹
